Data reported in ChEMBL document CHEMBL2311426, “Synthesis and antibacterial activity of novel water-soluble nocathiacin analogs” (Bioorg Med Chem Lett, 2013).
≈ marks a conversion by molar mass, not a printed value.

Experiments:
[1] = Aqueous solubility of the compound in water containing 5% dextrose at pH 4; assay type: physicochemical
Enterococcus faecalis = assay: Antibacterial activity against Enterococcus faecalis C21560 by turbidity method; assay type: functional; settings: read-out: MIC100
Staphylococcus aureus = assay: Antibacterial activity against Staphylococcus aureus MB2865 by turbidity method; assay type: functional; settings: read-out: MIC100
Streptococcus pneumoniae = assay: Antibacterial activity against Streptococcus pneumoniae CL2883 by turbidity method; assay type: functional; settings: read-out: MIC100

MIC (Enterococcus faecalis) [mg/L] | MIC (Staphylococcus aureus) [mg/L] | MIC (Streptococcus pneumoniae) [mg/L] | Structure (SMILES) | solubility [1] [mg/mL]
 |  |  | CO/C(C)=C1/NC(=O)[C@H]([C@@H](C)O)NC(=O)c2csc(n2)-c2cc(O)c(-c3nc(CNC(=O)CN4CCOCC4)cs3)nc2-c2csc(n2)[C@@H]2COC(=O)c3c4c5c(cccc5n3O)COC(=O)[C@@H](O[C@H]3C[C@](C)(O)[C@H](N(C)C)[C@H](C)O3)[C@@H](OC4)[C@H](NC(=O)c3csc1n3)c1nc(cs1)C(=O)N2.O=C(O)C(F)(F)F | > 10
0.03 (≈ 0.0201 µM) | 0.06 (≈ 0.0401 µM) | 0.00046 (≈ 0.000308 µM) | CO/C(C)=C1/NC(=O)[C@H]([C@@H](C)O)NC(=O)c2csc(n2)-c2cc(O)c(-c3nc(CNCC(C)(C)N4CCOCC4)cs3)nc2-c2csc(n2)[C@@H]2COC(=O)c3c4c5c(cccc5n3O)COC(=O)[C@@H](O[C@H]3C[C@](C)(O)[C@H](N(C)C)[C@H](C)O3)[C@@H](OC4)[C@H](NC(=O)c3csc1n3)c1nc(cs1)C(=O)N2 | 
1 (≈ 0.679 µM) | 0.125 (≈ 0.0849 µM) | 0.015 (≈ 0.0102 µM) | CO/C(C)=C1/NC(=O)[C@H]([C@@H](C)O)NC(=O)c2csc(n2)-c2cc(O)c(-c3nc(CNCC[C@H](O)[C@H](O)CO)cs3)nc2-c2csc(n2)[C@@H]2COC(=O)c3c4c5c(cccc5n3O)COC(=O)[C@@H](O[C@H]3C[C@](C)(O)[C@H](N(C)C)[C@H](C)O3)[C@@H](OC4)[C@H](NC(=O)c3csc1n3)c1nc(cs1)C(=O)N2 | 
0.25 (≈ 0.175 µM) | 0.06 (≈ 0.042 µM) | 0.0075 (≈ 0.00525 µM) | CO/C(C)=C1/NC(=O)[C@H]([C@@H](C)O)NC(=O)c2csc(n2)-c2cc(O)c(-c3nc(CNCC(O)CO)cs3)nc2-c2csc(n2)[C@@H]2COC(=O)c3c4c5c(cccc5n3O)COC(=O)[C@@H](O[C@H]3C[C@](C)(O)[C@H](N(C)C)[C@H](C)O3)[C@@H](OC4)[C@H](NC(=O)c3csc1n3)c1nc(cs1)C(=O)N2 (stereo not given in full) | 
> 1 | > 1 |  | CO/C(C)=C1/NC(=O)[C@H]([C@@H](C)O)NC(=O)c2csc(n2)-c2cc(O)c(-c3nc(CNC(=O)C(NC(N)=O)c4ccc(O)cc4)cs3)nc2-c2csc(n2)[C@@H]2COC(=O)c3c4c5c(cccc5n3O)COC(=O)[C@@H](O[C@H]3C[C@](C)(O)[C@H](N(C)C)[C@H](C)O3)[C@@H](OC4)[C@H](NC(=O)c3csc1n3)c1nc(cs1)C(=O)N2 (stereo not given in full) | 
 |  |  | CO/C(C)=C1/NC(=O)[C@H]([C@@H](C)O)NC(=O)c2csc(n2)-c2cc(O)c(-c3nc(CNC(=O)CN(C)C)cs3)nc2-c2csc(n2)[C@@H]2COC(=O)c3c4c5c(cccc5n3O)COC(=O)[C@@H](O[C@H]3C[C@](C)(O)[C@H](N(C)C)[C@H](C)O3)[C@@H](OC4)[C@H](NC(=O)c3csc1n3)c1nc(cs1)C(=O)N2.O=C(O)C(F)(F)F | > 10
 |  |  | CO/C(C)=C1/NC(=O)[C@H]([C@@H](C)O)NC(=O)c2csc(n2)-c2cc(O)c(-c3nc(CNCc4cncnc4)cs3)nc2-c2csc(n2)[C@@H]2COC(=O)c3c4c5c(cccc5n3O)COC(=O)[C@@H](O[C@H]3C[C@](C)(O)[C@H](N(C)C)[C@H](C)O3)[C@@H](OC4)[C@H](NC(=O)c3csc1n3)c1nc(cs1)C(=O)N2.O=C(O)C(F)(F)F | > 10
0.5 (≈ 0.34 µM) | 0.06 (≈ 0.0408 µM) | 0.015 (≈ 0.0102 µM) | CO/C(C)=C1/NC(=O)[C@H]([C@@H](C)O)NC(=O)c2csc(n2)-c2cc(O)c(-c3nc(CNC(=O)NCC(O)CO)cs3)nc2-c2csc(n2)[C@@H]2COC(=O)c3c4c5c(cccc5n3O)COC(=O)[C@@H](O[C@H]3C[C@](C)(O)[C@H](N(C)C)[C@H](C)O3)[C@@H](OC4)[C@H](NC(=O)c3csc1n3)c1nc(cs1)C(=O)N2 (stereo not given in full) | 
 |  |  | CO/C(C)=C1/NC(=O)[C@H]([C@@H](C)O)NC(=O)c2csc(n2)-c2cc(O)c(-c3nc(CNCC(C)(C)N4CCCCC4)cs3)nc2-c2csc(n2)[C@@H]2COC(=O)c3c4c5c(cccc5n3O)COC(=O)[C@@H](O[C@H]3C[C@](C)(O)[C@H](N(C)C)[C@H](C)O3)[C@@H](OC4)[C@H](NC(=O)c3csc1n3)c1nc(cs1)C(=O)N2.O=C(O)C(F)(F)F | > 10
 |  |  | CO/C(C)=C1/NC(=O)[C@H]([C@@H](C)O)NC(=O)c2csc(n2)-c2cc(O)c(-c3nc(CNC(=O)CN4CCN(C)CC4)cs3)nc2-c2csc(n2)[C@@H]2COC(=O)c3c4c5c(cccc5n3O)COC(=O)[C@@H](O[C@H]3C[C@](C)(O)[C@H](N(C)C)[C@H](C)O3)[C@@H](OC4)[C@H](NC(=O)c3csc1n3)c1nc(cs1)C(=O)N2.O=C(O)C(F)(F)F | > 10
 |  |  | CO/C(C)=C1/NC(=O)[C@H]([C@@H](C)O)NC(=O)c2csc(n2)-c2cc(O)c(-c3nc(CNCC(O)CO)cs3)nc2-c2csc(n2)[C@@H]2COC(=O)c3c4c5c(cccc5n3O)COC(=O)[C@@H](O[C@H]3C[C@](C)(O)[C@H](N(C)C)[C@H](C)O3)[C@@H](OC4)[C@H](NC(=O)c3csc1n3)c1nc(cs1)C(=O)N2.O=C(O)C(F)(F)F (stereo not given in full) | > 10
0.5 (≈ 0.34 µM) | 0.125 (≈ 0.0851 µM) |  | CO/C(C)=C1/NC(=O)[C@H]([C@@H](C)O)NC(=O)c2csc(n2)-c2cc(O)c(-c3nc(CNC(=O)NCCN(C)C)cs3)nc2-c2csc(n2)[C@@H]2COC(=O)c3c4c5c(cccc5n3O)COC(=O)[C@@H](O[C@H]3C[C@](C)(O)[C@H](N(C)C)[C@H](C)O3)[C@@H](OC4)[C@H](NC(=O)c3csc1n3)c1nc(cs1)C(=O)N2 | 
 |  |  | CO/C(C)=C1/NC(=O)[C@H]([C@@H](C)O)NC(=O)c2csc(n2)-c2cc(O)c(-c3nc(CN)cs3)nc2-c2csc(n2)[C@@H]2COC(=O)c3c4c5c(cccc5n3O)COC(=O)[C@@H](O[C@H]3C[C@](C)(O)[C@H](N(C)C)[C@H](C)O3)[C@@H](OC4)[C@H](NC(=O)c3csc1n3)c1nc(cs1)C(=O)N2.O=C(O)C(F)(F)F | > 10
 |  |  | CO/C(C)=C1/NC(=O)[C@H]([C@@H](C)O)NC(=O)c2csc(n2)-c2cc(O)c(-c3nc(CN(CCO)CCO)cs3)nc2-c2csc(n2)[C@@H]2COC(=O)c3c4c5c(cccc5n3O)COC(=O)[C@@H](O[C@H]3C[C@](C)(O)[C@H](N(C)C)[C@H](C)O3)[C@@H](OC4)[C@H](NC(=O)c3csc1n3)c1nc(cs1)C(=O)N2.O=C(O)C(F)(F)F | > 10
0.5 (≈ 0.335 µM) | 0.125 (≈ 0.0838 µM) |  | CO/C(C)=C1/NC(=O)[C@H]([C@@H](C)O)NC(=O)c2csc(n2)-c2cc(O)c(-c3nc(CNC(=O)NCCc4cnc[nH]4)cs3)nc2-c2csc(n2)[C@@H]2COC(=O)c3c4c5c(cccc5n3O)COC(=O)[C@@H](O[C@H]3C[C@](C)(O)[C@H](N(C)C)[C@H](C)O3)[C@@H](OC4)[C@H](NC(=O)c3csc1n3)c1nc(cs1)C(=O)N2 | 
 |  |  | CO/C(C)=C1/NC(=O)[C@H]([C@@H](C)O)NC(=O)c2csc(n2)-c2cc(O)c(-c3nc(CNCC[C@H](O)[C@H](O)CO)cs3)nc2-c2csc(n2)[C@@H]2COC(=O)c3c4c5c(cccc5n3O)COC(=O)[C@@H](O[C@H]3C[C@](C)(O)[C@H](N(C)C)[C@H](C)O3)[C@@H](OC4)[C@H](NC(=O)c3csc1n3)c1nc(cs1)C(=O)N2.O=C(O)C(F)(F)F | > 10
 |  |  | CO/C(C)=C1/NC(=O)[C@H]([C@@H](C)O)NC(=O)c2csc(n2)-c2cc(O)c(-c3nc(CNCCO)cs3)nc2-c2csc(n2)[C@@H]2COC(=O)c3c4c5c(cccc5n3O)COC(=O)[C@@H](O[C@H]3C[C@](C)(O)[C@H](N(C)C)[C@H](C)O3)[C@@H](OC4)[C@H](NC(=O)c3csc1n3)c1nc(cs1)C(=O)N2.O=C(O)C(F)(F)F | > 10
 |  |  | CO/C(C)=C1/NC(=O)[C@H]([C@@H](C)O)NC(=O)c2csc(n2)-c2cc(O)c(-c3nc(CNC(=O)CCN4CCOCC4)cs3)nc2-c2csc(n2)[C@@H]2COC(=O)c3c4c5c(cccc5n3O)COC(=O)[C@@H](O[C@H]3C[C@](C)(O)[C@H](N(C)C)[C@H](C)O3)[C@@H](OC4)[C@H](NC(=O)c3csc1n3)c1nc(cs1)C(=O)N2.O=C(O)C(F)(F)F | > 10
 |  |  | CO/C(C)=C1/NC(=O)[C@H]([C@@H](C)O)NC(=O)c2csc(n2)-c2cc(O)c(-c3nc(CNC(=O)NCCN(C)C)cs3)nc2-c2csc(n2)[C@@H]2COC(=O)c3c4c5c(cccc5n3O)COC(=O)[C@@H](O[C@H]3C[C@](C)(O)[C@H](N(C)C)[C@H](C)O3)[C@@H](OC4)[C@H](NC(=O)c3csc1n3)c1nc(cs1)C(=O)N2.O=C(O)C(F)(F)F | > 10
0.0075 (≈ 0.00526 µM) | 0.0075 (≈ 0.00526 µM) | 0.00457 (≈ 0.00321 µM) | CO/C(C)=C1/NC(=O)[C@H]([C@@H](C)O)NC(=O)c2csc(n2)-c2cc(O)c(-c3nc(CNC(=O)C(N)=O)cs3)nc2-c2csc(n2)[C@@H]2COC(=O)c3c4c5c(cccc5n3O)COC(=O)[C@@H](O[C@H]3C[C@](C)(O)[C@H](N(C)C)[C@H](C)O3)[C@@H](OC4)[C@H](NC(=O)c3csc1n3)c1nc(cs1)C(=O)N2 | 
 |  |  | CO/C(C)=C1/NC(=O)[C@H]([C@@H](C)O)NC(=O)c2csc(n2)-c2cc(O)c(-c3nc(CN(C)C)cs3)nc2-c2csc(n2)[C@@H]2COC(=O)c3c4c5c(cccc5n3O)COC(=O)[C@@H](O[C@H]3C[C@](C)(O)[C@H](N(C)C)[C@H](C)O3)[C@@H](OC4)[C@H](NC(=O)c3csc1n3)c1nc(cs1)C(=O)N2.O=C(O)C(F)(F)F | > 10

Structure (SMILES) | MIC (Enterococcus faecalis) [mg/L] | MIC (Staphylococcus aureus) [mg/L] | MIC (Streptococcus pneumoniae) [mg/L] | solubility [1] [mg/mL]
C=C(NC(=O)c1csc(-c2nc3c(cc2O)-c2nc(cs2)C(=O)N[C@@H]([C@@H](C)O)C(=O)N/C(=C(\C)OC)c2nc(cs2)C(=O)N[C@@H]2c4nc(cs4)C(=O)N[C@@H](COC(=O)c4c5c6c(cccc6n4O)COC(=O)[C@@H](O[C@H]4C[C@](C)(O)[C@H](N(C)C)[C@H](C)O4)[C@H]2OC5)c2nc-3cs2)n1)C(N)=O [MJ347-81F4 A] | 0.03 (≈ 0.0209 µM) | 0.007 (≈ 0.00487 µM) | 0.002 (≈ 0.00139 µM) | 
CO/C(C)=C1/NC(=O)[C@H]([C@@H](C)O)NC(=O)c2csc(n2)-c2cc(O)c(-c3nc(CN(CCO)CCO)cs3)nc2-c2csc(n2)[C@@H]2COC(=O)c3c4c5c(cccc5n3O)COC(=O)[C@@H](O[C@H]3C[C@](C)(O)[C@H](N(C)C)[C@H](C)O3)[C@@H](OC4)[C@H](NC(=O)c3csc1n3)c1nc(cs1)C(=O)N2 | 0.12 (≈ 0.0832 µM) | 0.06 (≈ 0.0416 µM) | 0.0075 (≈ 0.0052 µM) | 
